Measurements: patent US20160003808A1, “MOLECULAR TARGETS AND COMPOUNDS, AND METHODS TO IDENTIFY THE SAME, USEFUL IN THE TREATMENT OF DISEASES ASSOCIATED WITH EPITHELIAL MESENCHYMAL TRANSITION” (GALAPAGOS NV, priority 2013, published 2016)

Tests used:
[1] = tested on: Fibronectin (FN); assay: EMT on target screen, FN read-out; format: cell-based, human; settings: for OT FN Screen Z-score 2: as E11, duplicate 2; for Both (shRNA is a hit again in both OT assays, Yes/No): on target validation, Table 16; for OT FN Screen Z-score 1: robust Z-score, HBEC donor Br299, duplicate 1, cut-off Z ≦ −1.25
[2] = tested on: HBEC
[3] = tested on: MMP10; assay: EMT on target screen, MMP10 read-out; format: cell-based, human; settings: for OT MMP10 Screen Z-score 2: as E13, duplicate 2; for OT MMP10 Screen Z-score 1: robust Z-score, HBEC donor Br299, duplicate 1, cut-off Z ≦ −1.25

Substance | OT FN Screen Z-score 2 [1] | Both (shRNA is a hit again in both OT assays, Yes/No) [1] | OT FN Screen Z-score 1 [1] | OT CTB assay Z-score 1 [2] | OT CTB assay Z-score 2 [2] | OT MMP10 Screen Z-score 2 [3] | OT MMP10 Screen Z-score 1 [3]
64 (GTCCAACAGAAGTACGTGC; chemistry not given here) [compound 64] | -2.52 | no | -3.09 | 1.00 | -1.33 | 1.09 | -0.07
53 (TCAGCTGGGCGCTATGTTC; chemistry not given here) [compound 53] | -2.98 | no | -3.01 | -3.97 | -4.28 | 0.45 | -0.41
49 (GAGGATGCCATTAAGTATT; chemistry not given here) [compound 49] | -1.84 | no | -1.75 | -0.78 | -0.88 | 0.87 | 0.57
50 (GAGGCAGCCTTGTACTCTT; chemistry not given here) [compound 50] | -4.42 | no | -2.42 | -0.51 | 2.33 | -0.49 | 1.32
47 (GAACACGTACAAAGTCATT; chemistry not given here) [compound 47] | -5.03 | no | -4.88 | -7.55 | -4.92 | -6.24 | -11.24
59 (TGAAGGTCAAGAAGCCGGC; chemistry not given here) [compound 59] | -8.92 | yes | -6.20 | -6.59 | -4.59 | -1.19 | -1.71
66 (GAAGGAGCTACTCATCTTC; chemistry not given here) [compound 66] | -4.82 | yes | -2.81 | -2.25 | -4.39 | 0.70 | -1.93
52 (TGAATACTATGTGGGATTC; chemistry not given here) [compound 52] | -3.74 | yes | -3.30 | -3.43 | -3.45 | 0.95 | 1.96
65 (GGCCATGATTGAGAAACTC; chemistry not given here) [compound 65] | -4.03 | no | -4.35 | 1.09 | 1.89 | -3.44 | -5.08
75 (TCGCTAGGTATGAATAACC; chemistry not given here) [compound 75] | -2.58 | yes | -2.04 | -0.46 | -2.90 | -0.75 | 0.15
63 (GAATTTCAGAAGTACTGTG; chemistry not given here) [compound 63] | -3.76 | no | -3.62 | -2.12 | -3.06 | 2.02 | 1.53
56 (TGATGGTTACCGCAAGATC; chemistry not given here) [compound 56] | -3.69 | yes | -2.74 | 0.64 | -2.23 | -5.05 | -3.35
55 (AGGCTCACTTGCCTTTGGC; chemistry not given here) [compound 55] | -6.07 | yes | -4.43 | -4.29 | -8.29 | 0.18 | 0.92
68 (CATCAGCTTCCTGCTGGGC; chemistry not given here) [compound 68] | -5.66 | yes | -4.29 | -2.64 | -2.21 | -0.35 | -1.18
48 (GGATGGAGTTGGGAATCAC; chemistry not given here) [compound 48] | -3.44 | yes | -3.28 | -1.14 | -3.01 | -2.43 | -2.26
70 (GAGTTTGCCTACTCAGAGG; chemistry not given here) [compound 70] | -4.05 | no | -4.52 | 0.19 | 1.51 | -1.35 | -4.35
73 (GAAACCATCCTTTCTTGAA; chemistry not given here) [compound 73] | -2.91 | no | -2.09 | -1.31 | -2.09 | 0.06 | -0.19
69 (GATGGAGCGCTTACACTAC; chemistry not given here) [compound 69] | -5.75 | no | -4.37 | -3.34 | -1.32 | -3.43 | -4.95
72 (GAGTTGGACAGTGGAGGAC; chemistry not given here) [compound 72] | -7.31 | yes | -3.99 | -3.13 | -4.22 | -6.59 | -4.52
74 (AGACCTGGTCTACATCGAC; chemistry not given here) [compound 74] | -4.17 | no | -2.80 | -8.40 | -6.74 | -2.12 | -2.88
60 (AACCTGGCCATTCAGACCC; chemistry not given here) [compound 60] | -2.96 | yes | -2.56 | -7.10 | -2.00 | -0.06 | -1.88
62 (CAGATTCCATCTGATGGCC; chemistry not given here) [compound 62] | -5.21 | yes | -4.99 | -3.19 | -2.25 | -2.79 | -2.75
